In experiment [1] the test system is barnyardgrass (Echinochloa crus-galli L.). The experiment can be described thus: Test Example 1: foliar treatment, growth inhibition rate, barnyardgrass. The note with it: visually observed 17th to 23rd day after application. It is filed as in vivo. The method, boiled down: (§1)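 Plants grown in upland soil in pots were sprayed on the foliage at set leaf stages (corn 2.0–3.5, greenfoxtail 1.0–3.0, rice 1.0–2.5, wheat 1.7–3.4 leaves) with wettable powder or emulsifiable concentrate formulations diluted in water at 500 L/ha plus 0.1 vol % spreader. Growth inhibition was scored visually 17–23 days later.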

The test system of experiment [2] is corn. The experiment is described as follows: Test Example 2: soil application on the day after sowing, growth inhibition rate, corn. It is filed as in vivo, Zea mays L. To be noted: 250 g/ha active ingredient, observed on 19th to 24th day. An excerpt:
(§2) Upland field soil was put into a 1/170,000 hectare pot, and seeds of various plants (barnyardgrass, crabgrass, greenfoxtail, redroot pigweed, prickly sida, velvetleaf, rice, wheat, corn and soybean) were sown. On the day after sowing, wettable powders or emulsifiable concentrates of the compounds of the present invention prepared in accordance with a conventional preparation method, were weighed so that the active ingredients became the prescribed amounts, and diluted with water in an amount corresponding to 500 liter per 1 hectare, followed by soil application with a small sprayer. On the 19th to 24th day after the application, the state of growth of the respective plants was visually observed, and the herbicidal effect was evaluated in accordance with a growth inhibition rate (%) of from 0 (equivalent to the non-treated area) to 100% (complete kill).

Experiment [3] deals with soybean (Glycine max Merr.). The experiment is described as follows: Test Example 1: foliar treatment, growth inhibition rate, soybean. Type of experiment: in vivo. The note with it: visually observed 17th to 23rd day after application. The method, boiled down:
(§3)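 Visual scoring of growth inhibition, 0% (untreated) to 100% (complete kill), on days 17–23 following post-emergence spray of formulated compound in water (500 L/ha, 0.1 vol % spreader); plants treated at set leaf stages, e.g. corn 2.0–3.5, wheat 1.7–3.4.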

Experiment [4] relates to redroot pigweed. The experiment can be described thus: Test Example 2: soil application on the day after sowing, growth inhibition rate, redroot pigweed. Type of experiment: in vivo, Amaranthus retroflexus L. The note with it: 250 g/ha active ingredient, observed on 19th to 24th day.
Excerpt: as §2

For experiment [5], the system named is velvetleaf. The experiment can be described thus: Test Example 2: soil application on the day after sowing, growth inhibition rate, velvetleaf. To be noted: 250 g/ha active ingredient, observed on 19th to 24th day. Type of experiment: in vivo, Abutilon theophrasti MEDIC.
Excerpt: as §2

The subject of experiment [6] is velvetleaf (Abutilon theophrasti MEDIC.). The experiment is described as follows: Test Example 1: foliar treatment, growth inhibition rate, velvetleaf. It is filed as in vivo. To be noted: visually observed 17th to 23rd day after application. The method, boiled down: as §1
For experiment [7], the system named is barnyardgrass. The experiment can be described thus: Test Example 2: soil application on the day after sowing, growth inhibition rate, barnyardgrass. Type of experiment: in vivo, Echinochloa crus-galli L. To be noted: 250 g/ha active ingredient, observed on 19th to 24th day.
Excerpt: as §2

The test system of experiment [8] is prickly sida (Sida spinosa L.). The experiment is described as follows: Test Example 1: foliar treatment, growth inhibition rate, prickly sida. It is filed as in vivo. To be noted: visually observed 17th to 23rd day after application. The method, boiled down:
as §3

For experiment [9], the system named is rice (Oryza sativa L.). The experiment can be described thus: Test Example 1: foliar treatment, growth inhibition rate, rice. Type of experiment: in vivo. The note with it: visually observed 17th to 23rd day after application. The method, boiled down:
(§4)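 Potted upland soil; compounds as wettable powders or emulsifiable concentrates diluted in water at 500 L/ha plus 0.1 vol % spreader, foliar-sprayed at defined leaf stages (rice 1.0–2.5, wheat 1.7–3.4, corn 2.0–3.5, greenfoxtail 1.0–3.0). Growth inhibition (0–100%) scored visually 17–23 days after application.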

Experiment [10] concerns crabgrass. The experiment is described as follows: Test Example 2: soil application on the day after sowing, growth inhibition rate, crabgrass. Type of experiment: in vivo, Digitaria sanguinalis L. The note with it: 250 g/ha active ingredient, observed on 19th to 24th day.
Excerpt: as §2

For experiment [11], the system named is redroot pigweed (Amaranthus retroflexus L.). The experiment is described as follows: Test Example 1: foliar treatment, growth inhibition rate, redroot pigweed. Type of experiment: in vivo. The note with it: visually observed 17th to 23rd day after application. The method, boiled down:
as §3

Experiment [12] concerns crabgrass (Digitaria sanguinalis L.). The experiment is described as follows: Test Example 1: foliar treatment, growth inhibition rate, crabgrass. It is filed as in vivo. The note with it: visually observed 17th to 23rd day after application. The method, boiled down:
as §3

Experiment [13] concerns soybean. The experiment can be described thus: Test Example 2: soil application on the day after sowing, growth inhibition rate, soybean. It is filed as in vivo, Glycine max Merr. To be noted: 250 g/ha active ingredient, observed on 19th to 24th day.
Excerpt: as §2

The subject of experiment [14] is prickly sida. The experiment can be described thus: Test Example 2: soil application on the day after sowing, growth inhibition rate, prickly sida. It is filed as in vivo, Sida spinosa L. To be noted: 250 g/ha active ingredient, observed on 19th to 24th day.
Excerpt: as §2

Experiment [15] has as its system corn (Zea mays L.). The experiment can be described thus: Test Example 1: foliar treatment, growth inhibition rate, corn. Type of experiment: in vivo. The note with it: visually observed 17th to 23rd day after application. The method, boiled down:
as §4

The test system of experiment [16] is wheat (Triticum spp.). The experiment can be described thus: Test Example 1: foliar treatment, growth inhibition rate, wheat. Type of experiment: in vivo. The note with it: visually observed 17th to 23rd day after application. The method, boiled down: as §4
Experiment [17] deals with greenfoxtail (Setaria viridis L.). The experiment is described as follows: Test Example 1: foliar treatment, growth inhibition rate, greenfoxtail. Type of experiment: in vivo. To be noted: visually observed 17th to 23rd day after application. The method, boiled down: as §4
Experiment [18] relates to rice. The experiment can be described thus: Test Example 2: soil application on the day after sowing, growth inhibition rate, rice. Type of experiment: in vivo, Oryza sativa L. The note with it: 250 g/ha active ingredient, observed on 19th to 24th day.
Excerpt: as §2

Experiment [19] has as its system greenfoxtail. The experiment can be described thus: Test Example 2: soil application on the day after sowing, growth inhibition rate, greenfoxtail. It is filed as in vivo, Setaria viridis L. The note with it: 250 g/ha active ingredient, observed on 19th to 24th day.
Excerpt: as §2

Molecules are shown by their SMILES.

Turning to `CCSC(=O)Oc1c(C(=O)c2ccc(S(C)(=O)=O)c(OC(C)COC)c2C)cnn1C` (stereo not drawn) [compound 236], the results for the “Growth inhibition rate (%) Barnyardgrass” value in experiment [1] (31 g/ha active ingredient) and in experiment [7] were 60% and 98%, respectively. In addition, the “Growth inhibition rate (%) Corn” value in [2] and in [15] (31 g/ha active ingredient) was 0% each time. Further, the figures for the “Growth inhibition rate (%) Soybean” value in experiment [3] (31 g/ha active ingredient) and in experiment [13] were 95% and 0%, respectively. Further, the figures for the “Growth inhibition rate (%) redroot pigweed” value in experiment [4] and in experiment [11] (31 g/ha active ingredient) were 100% and 90%, respectively. Also, the “Growth inhibition rate (%) Velvetleaf” value in experiment [5] is given as 0%; in [6] (31 g/ha active ingredient), 70%. The entries for the “Growth inhibition rate (%) Prickly sida” value in experiment [8] (31 g/ha active ingredient) and in [14] were 40% and 30%, respectively. In addition, the “Growth inhibition rate (%) Rice” value turned out to be 80% in [9] (31 g/ha active ingredient) and 70% in experiment [18]. Besides, the “Growth inhibition rate (%) Crabgrass” value in experiment [10] is recorded as 95%; in [12] (31 g/ha active ingredient), 50%. Moreover, the “Growth inhibition rate (%) Wheat” value in experiment [16] (31 g/ha active ingredient) turned out to be 0%. The “Growth inhibition rate (%) Greenfoxtail” value stood at 40% in experiment [17] (31 g/ha active ingredient) and 10% in experiment [19].

Consider `CCSC(=O)Oc1c(C(=O)c2ccc(S(C)(=O)=O)c(CSC#N)c2C)cnn1C` [compound 231], for which the figures for the “Growth inhibition rate (%) Barnyardgrass” value in experiment [1] (63 g/ha active ingredient) and in [7] were 100% and 70%, respectively. Moreover, the “Growth inhibition rate (%) Corn” value in experiment [2] and in experiment [15] (63 g/ha active ingredient) was 0% each time. In addition, the “Growth inhibition rate (%) Soybean” value turned out to be 100% in [3] (63 g/ha active ingredient) and 0% in experiment [13]. Besides, the “Growth inhibition rate (%) redroot pigweed” value in experiment [4] was 50%; in experiment [11] (63 g/ha active ingredient), 80%. Moreover, the “Growth inhibition rate (%) Velvetleaf” value in experiment [5] is 0%; in experiment [6] (63 g/ha active ingredient) it was 80%. For the same compound, the results for the “Growth inhibition rate (%) Prickly sida” value in [8] (63 g/ha active ingredient) and in experiment [14] were 40% and 0%, respectively. Further, the “Growth inhibition rate (%) Rice” value turned out to be 50% in experiment [9] (63 g/ha active ingredient) and 0% in [18]. In addition, the “Growth inhibition rate (%) Crabgrass” value amounted to 60% in experiment [10] and 70% in experiment [12] (63 g/ha active ingredient). Besides, the “Growth inhibition rate (%) Wheat” value in [16] (63 g/ha active ingredient) is reported as 0%. The figures for the “Growth inhibition rate (%) Greenfoxtail” value in experiment [17] (63 g/ha active ingredient) and in [19] were 40% and 0%, respectively.

Regarding `CCCSC(=O)Oc1c(C(=O)c2ccc(S(C)(=O)=O)c(OCCOC)c2C)cnn1CC` [compound 235], the “Growth inhibition rate (%) Barnyardgrass” value in experiment [1] (31 g/ha active ingredient) and in [7] was 100% in each case. For the same compound, the “Growth inhibition rate (%) Corn” value is listed as 0% in experiment [2] and 30% in experiment [15] (31 g/ha active ingredient). The figures for the “Growth inhibition rate (%) Soybean” value in experiment [3] (31 g/ha active ingredient) and in experiment [13] were 100% and 0%, respectively. For the same compound, the “Growth inhibition rate (%) redroot pigweed” value in [4] and in experiment [11] (31 g/ha active ingredient) was 100% in each case. Besides, the “Growth inhibition rate (%) Velvetleaf” value in experiment [5] was 20%; in [6] (31 g/ha active ingredient) it was 100%. Further, the “Growth inhibition rate (%) Prickly sida” value came out at 50% in experiment [8] (31 g/ha active ingredient) and 98% in experiment [14]. The “Growth inhibition rate (%) Rice” value came to 90% in experiment [9] (31 g/ha active ingredient) and 100% in experiment [18]. For the same compound, the “Growth inhibition rate (%) Crabgrass” value in experiment [10] and in experiment [12] (31 g/ha active ingredient) was 100% in each case. Further, the “Growth inhibition rate (%) Wheat” value in experiment [16] (31 g/ha active ingredient) worked out at 40%. Further, the “Growth inhibition rate (%) Greenfoxtail” value in [17] (31 g/ha active ingredient) and in [19] was 100% each time.
